Laboratory results from US5635608A, “α-carboxy caged compounds” (Molecular Probes, Inc., priority 1994, dated 1997).

Tested on: whole neuron
Test: Release of a caged neurotransmitter in situ: whole-cell current of a neuron before and on photolysis
Assay type: cell-based
From the text: FIG. 2: The photolysis of a caged probe in situ, as described in Example 15.
A whole neuron is bathed in a solution of γ-(α-carboxy o-nitrobenzyl)-caged glutamic acid (3), as described in Example 1. The whole-cell current is then monitored as the neuron is photolyrically illuminated at 343 nm. […] This indicates both that the uncaging of a CNB-caged probe is extremely rapid, but also verifies that the caged neurotransmitter is inert in situ until uncaged.

N[C@@H](CCC(=O)OC(C(=O)O)c1ccccc1[N+](=O)[O-])C(=O)O (stereo partly drawn) [Compound 3, L-Glutamic Acid, γ-(α-carboxy-o-nitrobenzyl) ester]
whole-cell current on photolytic illumination (illumination at 343 nm, begun at time=0 ms, FIG. 2): increases rapidly
activity of the caged neurotransmitter in situ before uncaging (whole-cell current) (whole neuron bathed in solution of caged glutamic acid, before illumination): inert
